These compounds were tested against T1, human orexin-2 (hOX2) receptor (Homo sapiens, UniProt O43614) (assay: Intracellular Ca2+ mobilization assay (FLIPR), CHO(dHFr-) cells expressing hOX2, orexin-A as agonist). Conditions: antagonist Kb=IC50/(1+[A]/EC50); orexin-A at EC80; CHO(dHFr-)-OX2R cells; antagonist applied 25 min before agonist.
T1 construct: expressed in transfected cells
T1 sequence (O43614 1-444): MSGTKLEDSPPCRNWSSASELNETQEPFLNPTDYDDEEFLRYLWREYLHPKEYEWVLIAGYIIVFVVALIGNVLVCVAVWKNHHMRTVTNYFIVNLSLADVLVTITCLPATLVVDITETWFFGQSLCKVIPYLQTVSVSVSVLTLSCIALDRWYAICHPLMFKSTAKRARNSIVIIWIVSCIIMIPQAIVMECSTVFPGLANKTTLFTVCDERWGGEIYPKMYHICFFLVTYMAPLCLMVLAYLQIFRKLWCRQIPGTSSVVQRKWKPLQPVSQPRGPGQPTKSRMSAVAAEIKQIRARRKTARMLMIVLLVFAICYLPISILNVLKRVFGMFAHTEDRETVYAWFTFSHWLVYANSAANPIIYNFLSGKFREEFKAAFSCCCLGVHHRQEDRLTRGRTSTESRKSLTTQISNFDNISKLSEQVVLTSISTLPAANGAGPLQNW
Assay type: cell-based
Protocol: Intracellular Ca^2+ Mobilization Assay
The Chinese Hamster Ovary (dHFr-) mutant cell line stably expressing human orexin-1 (hOX1) or human orexin-2 (hOX2) receptors were maintained in Dulbecco's Modified Eagle Medium (1×) with GlutaMax™1, 4500 mg/L D-Glucose and Sodium Pyruvate (Catalog No. 31966-021, Invitrogen, Carlsbad, Calif.), 5% dialyzed fetal calf serum (Catalog No. 26400-044), 100 μg/ml penicillin and 100 μg/ml streptomycin. The cells were seeded at 5×10^4 cells/well in the poly-D-lysine treated, 96-well, black/clear-bottomed plates (Catalog No. BD356640, BD Biosciences, Palo Alto, Calif.). 24 h later, the cells were loaded for 1 h at 37° C. with 4 μM Flou-4 acetoxymethyl ester (Catalog No. F-14202, Molecular Probes, Eugene, Oreg.) in FLIPR buffer (1×HBSS, 20 mM HEPES, 2.5 mM Probenecid). Hanks' Balanced Salt Solution (HBSS) (10×) (catalog No. 14065-049) and HEPES (1M) (catalog No. 15630-056) were purchased from Invitrogen, Carlsbad, Calif. Probenecid (250 mM) (catalog No. P8761) was from Sigma, Buchs, Switzerland. The cells were washed five times with FLIPR buffer to remove excess dye and intracellular calcium mobilization, [Ca^2−]i were measured using a Fluorometric Imaging Plate Reader (FLIPR-96, Molecular Devices, Menlo Park, Calif.) as described previously (Malherbe et al., Mol. Pharmacol., 64, 823-832, 2003). Orexin A (catalog No. 1455, Toris Cookson Ltd, Bristol, UK) was used as agonist. Orexin A ([…] stock solution in DMSO) was diluted in FLIPR buffer+0.1% BSA. The EC50 and EC80 values of orexin-A were measured daily from standard agonist concentration-response curves in CHO(dHFr-)-OX1R and -OX2R cell lines. All compounds were dissolved in 100% DMSO. Inhibition curves were determined by addition of 11 concentrations (0.0001-10 μM) of inhibitory compounds and using EC80 value of orexin-A as agonist (a concentration which gave 80% of max agonist response, determined daily). The antagonists were applied 25 min (incubation at 37° C.) before the application of the agonist. Responses were measured as peak increase in fluorescence minus basal, normalized to the maximal stimulatory effect induced by EC80 value of orexin-A or orexin-B. Inhibition curves were fitted according to the Hill equation: y=100/(1+(x/IC50)^nH), where nH=slope factor using Excel-fit 4 software (Microsoft).
Kb values were calculated according to the following equation Kb=IC50/(1+[A]/EC50) where A is the concentration of agonist added which is very close to agonist EC80 value, and IC50 and EC50 values were derived from the antagonist inhibition and orexin-A or B agonist curves, respectively.

Compound | Kb
O=C(c1ccccc1OC(F)(F)F)N1CC[C@@H](Nc2nc3ccc(F)cc3s2)C1 [Example 113, [(R)-3-(6-Fluoro-benzothiazol-2-ylamino)-pyrrolidin-1-yl]-(2-trifluoromethoxy-phenyl)-methanone] | 0.0217 µM
O=C(c1ccccc1OC(F)(F)C(F)F)N1CC[C@@H](Nc2nc3ccc(F)cc3s2)C1 [Example 114, [(R)-3-(6-Fluoro-benzothiazol-2-ylamino)-pyrrolidin-1-yl]-[2-(1,1,2,2-tetrafluoro-ethoxy)-phenyl]-methanone] | 0.002 µM
Cc1ccc(C(F)(F)F)c(C(=O)N2CC[C@@H](Nc3nc4ccc(F)cc4s3)C2)c1 [Example 115, [(R)-3-(6-Fluoro-benzothiazol-2-ylamino)-pyrrolidin-1-yl]-(5-methyl-2-trifluoromethyl-phenyl)-methanone] | 0.0068 µM
Cc1onc(-c2ccccc2)c1C(=O)N1CC[C@@H](Nc2nc3ccc(F)cc3s2)C1 [Example 116, [(R)-3-(6-Fluoro-benzothiazol-2-ylamino)-pyrrolidin-1-yl]-(5-methyl-3-phenyl-isoxazol-4-yl)-methanone] | 0.0261 µM
Cc1noc(-c2ccccc2C(=O)N2CC[C@@H](Nc3nc4ccc(F)cc4s3)C2)n1 [Example 117, [(R)-3-(6-Fluoro-benzothiazol-2-ylamino)-pyrrolidin-1-yl]-[2-(3-methyl-[1,2,4]oxadiazol-5-yl)-phenyl]-methanone] | 0.0197 µM
Cc1ccc(Cl)c(C(=O)N2CC[C@@H](Nc3nc4ccc(F)cc4s3)C2)c1 [Example 118, (2-Chloro-5-methyl-phenyl)-[(R)-3-(6-fluoro-benzothiazol-2-ylamino)-pyrrolidin-1-yl]-methanone] | 0.039 µM
Cc1nc(C(=O)N2CC[C@@H](Nc3nc4ccc(F)cc4s3)C2)c(-c2ccccc2)s1 [Example 120, [(R)-3-(6-Fluoro-benzothiazol-2-ylamino)-pyrrolidin-1-yl]-(2-methyl-5-phenyl-thiazol-4-yl)-methanone] | 0.0188 µM
O=C(c1ccccc1OC(F)(F)F)N1CC[C@@H](Nc2nc3c(F)cccc3s2)C1 [Example 122, [(R)-3-(4-Fluoro-benzothiazol-2-ylamino)-pyrrolidin-1-yl]-(2-trifluoromethoxy-phenyl)-methanone] | 0.0193 µM
O=C(c1ccccc1OC(F)(F)C(F)F)N1CC[C@@H](Nc2nc3c(F)cccc3s2)C1 [Example 123, [(R)-3-(4-Fluoro-benzothiazol-2-ylamino)-pyrrolidin-1-yl]-[2-(1,1,2,2-tetrafluoro-ethoxy)-phenyl]-methanone] | 0.0032 µM
Cc1ccc(C(F)(F)F)c(C(=O)N2CC[C@@H](Nc3nc4c(F)cccc4s3)C2)c1 [Example 124, [(R)-3-(4-Fluoro-benzothiazol-2-ylamino)-pyrrolidin-1-yl]-(5-methyl-2-trifluoromethyl-phenyl)-methanone] | 0.0363 µM
Cc1noc(-c2ccccc2C(=O)N2CC[C@@H](Nc3nc4c(F)cccc4s3)C2)n1 [Example 126, [(R)-3-(4-Fluoro-benzothiazol-2-ylamino)-pyrrolidin-1-yl]-[2-(3-methyl-[1,2,4]oxadiazol-5-yl)-phenyl]-methanone] | 0.0144 µM
O=C(c1ccccc1OC(F)(F)C(F)F)N1CC[C@@H](Nc2nc3cc(F)cc(F)c3s2)C1 [Example 132, [(R)-3-(5,7-Difluoro-benzothiazol-2-ylamino)-pyrrolidin-1-yl]-[2-(1,1,2,2-tetrafluoro-ethoxy)-phenyl]-methanone] | 0.016 µM
Cc1onc(-c2ccccc2)c1C(=O)N1CC[C@@H](Nc2nc3cc(F)cc(F)c3s2)C1 [Example 134, [(R)-3-(5,7-Difluoro-benzothiazol-2-ylamino)-pyrrolidin-1-yl]-(5-methyl-3-phenyl-isoxazol-4-yl)-methanone] | 0.0228 µM
Cc1noc(-c2ccccc2C(=O)N2CC[C@@H](Nc3nc4cc(F)cc(F)c4s3)C2)n1 [Example 135, [(R)-3-(5,7-Difluoro-benzothiazol-2-ylamino)-pyrrolidin-1-yl]-[2-(3-methyl-[1,2,4]oxadiazol-5-yl)-phenyl]-methanone] | 0.0394 µM

Next, values leading:

Kb | Compound
0.0138 µM | O=C(c1ccccc1OC(F)(F)C(F)F)N1CC[C@@H](Nc2nc3cccc(F)c3o2)C1 [Example 141, [(R)-3-(7-Fluoro-benzooxazol-2-ylamino)-pyrrolidin-1-yl]-[2-(1,1,2,2-tetrafluoro-ethoxy)-phenyl]-methanone]
0.0386 µM | O=C(c1ccccc1OC(F)(F)F)N1CC[C@@H](Nc2nc3ccc(F)c(F)c3o2)C1 [Example 148, [(R)-3-(6,7-Difluoro-benzooxazol-2-ylamino)-pyrrolidin-1-yl]-(2-trifluoromethoxy-phenyl)-methanone]
0.0072 µM | O=C(c1ccccc1OC(F)(F)C(F)F)N1CC[C@@H](Nc2nc3ccc(F)c(F)c3o2)C1 [Example 149, [(R)-3-(6,7-Difluoro-benzooxazol-2-ylamino)-pyrrolidin-1-yl]-[2-(1,1,2,2-tetrafluoro-ethoxy)-phenyl]-methanone]
0.0136 µM | Cc1ccc(C(F)(F)F)c(C(=O)N2CC[C@@H](Nc3nc4ccc(F)c(F)c4o3)C2)c1 [Example 150, [(R)-3-(6,7-Difluoro-benzooxazol-2-ylamino)-pyrrolidin-1-yl]-(5-methyl-2-trifluoromethyl-phenyl)-methanone]
0.0355 µM | Cc1onc(-c2ccccc2)c1C(=O)N1CC[C@@H](Nc2nc3ccc(F)c(F)c3o2)C1 [Example 151, [(R)-3-(6,7-Difluoro-benzooxazol-2-ylamino)-pyrrolidin-1-yl]-(5-methyl-3-phenyl-isoxazol-4-yl)-methanone]
0.0304 µM | Cc1nc(C(=O)N2CC[C@@H](Nc3nc4ccc(F)c(F)c4o3)C2)c(-c2ccccc2)s1 [Example 155, [(R)-3-(6,7-Difluoro-benzooxazol-2-ylamino)-pyrrolidin-1-yl]-(2-methyl-5-phenyl-thiazol-4-yl)-methanone]
0.0247 µM | O=C(c1ccccc1OC(F)(F)F)N1CC[C@@H](Nc2nc3ccc(F)cc3o2)C1 [Example 157, [(R)-3-(6-Fluoro-benzooxazol-2-ylamino)-pyrrolidin-1-yl]-(2-trifluoromethoxy-phenyl)-methanone]
0.0039 µM | O=C(c1ccccc1OC(F)(F)C(F)F)N1CC[C@@H](Nc2nc3ccc(F)cc3o2)C1 [Example 158, [(R)-3-(6-Fluoro-benzooxazol-2-ylamino)-pyrrolidin-1-yl]-[2-(1,1,2,2-tetrafluoro-ethoxy)-phenyl]-methanone]
0.0205 µM | Cc1ccc(C(F)(F)F)c(C(=O)N2CC[C@@H](Nc3nc4ccc(F)cc4o3)C2)c1 [Example 159, [(R)-3-(6-Fluoro-benzooxazol-2-ylamino)-pyrrolidin-1-yl]-(5-methyl-2-trifluoromethyl-phenyl)-methanone]
0.047 µM | Cc1nc(C(=O)N2CC[C@@H](Nc3nc4ccc(F)cc4o3)C2)c(-c2ccccc2)s1 [Example 164, [(R)-3-(6-Fluoro-benzooxazol-2-ylamino)-pyrrolidin-1-yl]-(2-methyl-5-phenyl-thiazol-4-yl)-methanone]
0.0185 µM | O=C(c1ccccc1C(F)(F)F)N1CC[C@@H](Nc2cnc3cc(F)c(F)cc3n2)C1 [Example 165, [(R)-3-(6,7-Difluoro-quinoxalin-2-ylamino)-pyrrolidin-1-yl]-(2-trifluoromethyl-phenyl)-methanone]

Source: patent US7897627B2, “Heteroaryl derivatives as orexin receptor antagonists” (Hoffmann-La Roche Inc., priority 2007, dated 2011)
